Test systems include RXF 393 renal; OVCAR-3 ovarian; ACHN renal; OVCAR-5 ovarian; MALME-3M melanoma; CCRF-CEM leukemia; SF-268 CNS; HCC-2998 colon; 786-0 renal; NCI-H522 lung.
Test in all cases: NCI anticancer screen, dose series, 48 h

Values joined by “and” are separate entries in the source; they are usually repeats but may differ in a detail not shown here. Equal entries are not always repeated.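 How tested: cells in 96-well plates exposed to compound for 48 hours at five concentrations. GI50 = concentration required for 50% inhibition of growth. Definition used: TGI = concentration required for complete inhibition of growth.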

For the compound `Cc1nn[n-]n1.N.N.N.N.N.[Cl-].[Co+3]`, the GI50 in the assay on RXF 393 renal, in the assay with OVCAR-3 ovarian, with ACHN renal, in the assay on OVCAR-5 ovarian, in the assay on MALME-3M melanoma and in the assay on CCRF-CEM leukemia was more than 100 µM throughout. The GI50 with SF-268 CNS, in the assay on HCC-2998 colon and in the assay on 786-0 renal was more than 100 µM each time. In addition, the TGI in the assay on RXF 393 renal, in the assay with OVCAR-3 ovarian, with ACHN renal, with OVCAR-5 ovarian, in the assay on MALME-3M melanoma and with CCRF-CEM leukemia was more than 100 µM in each case. The TGI in the assay with SF-268 CNS, in the assay with HCC-2998 colon and with 786-0 renal was more than 100 µM in each case.

As to `CC[n+]1oc(C(=O)c2ccc(Cl)cc2)c(-c2ccccc2)c1-c1ccccc1.[Cl][Fe]([Cl])([Cl])[Cl]`, the GI50 is 23.1 µM in the assay on OVCAR-3 ovarian; 33.5 µM in the assay with ACHN renal; 82.4 µM with OVCAR-5 ovarian; 39.7 µM in the assay on MALME-3M melanoma; 14.8 µM in the assay with CCRF-CEM leukemia; 36.1 µM in the assay with SF-268 CNS. In addition, the GI50 was 60.8 µM with HCC-2998 colon and 91.8 µM with 786-0 renal. The TGI with OVCAR-3 ovarian is 56.2 µM; in the assay with ACHN renal, 99.3 µM; in the assay on OVCAR-5 ovarian, more than 100 µM; in the assay on MALME-3M melanoma, more than 100 µM; with CCRF-CEM leukemia, 39.4 µM; in the assay with SF-268 CNS, more than 100 µM. The TGI in the assay on HCC-2998 colon and in the assay on 786-0 renal was more than 100 µM in each case.

As for `O=S(=O)(NCCNc1nccc(-c2c(-c3ccc(F)c(O)c3)nc3sccn23)n1)c1ccc(F)cc1`, the GI50 in the assay with NCI-H522 lung was 3.31 µM; in the assay with RXF 393 renal, 2.17 µM; in the assay on OVCAR-3 ovarian it was 4.09 µM; in the assay with ACHN renal, 2.58 µM; with OVCAR-5 ovarian, 4.37 µM; in the assay with MALME-3M melanoma, 0.232 µM. For the same compound, the results for the GI50 in the assay on SF-268 CNS, in the assay with HCC-2998 colon and in the assay on 786-0 renal were 4.71 µM, 4.45 µM and 3.21 µM, respectively. In addition, the TGI came to 19.2 µM in the assay on NCI-H522 lung; 5.46 µM with RXF 393 renal; 59.5 µM with OVCAR-3 ovarian; 28.5 µM in the assay on ACHN renal; 85.7 µM in the assay with OVCAR-5 ovarian; 1.37 µM in the assay on MALME-3M melanoma. Besides, the figures for the TGI in the assay on SF-268 CNS, in the assay with HCC-2998 colon and in the assay on 786-0 renal were more than 100 µM, 17.2 µM and more than 100 µM, respectively.

For the compound `COc1cc2c(c(OC)c1OC)-c1ncc3c(OC)c(OC)c(OC)cc3c1C2`, the GI50 in the assay on NCI-H522 lung was 19.3 µM; in the assay with RXF 393 renal, 25.2 µM; with OVCAR-3 ovarian it was 21.5 µM; with ACHN renal it was 31.2 µM; with OVCAR-5 ovarian, 17.4 µM; with HCC-2998 colon, 16.1 µM. Further, the GI50 in the assay on 786-0 renal was 36.5 µM. Also, the TGI was 48.3 µM in the assay on NCI-H522 lung; 83.2 µM in the assay on RXF 393 renal; 50.9 µM with OVCAR-3 ovarian; more than 100 µM with ACHN renal; 77.9 µM in the assay on OVCAR-5 ovarian; 30.7 µM with HCC-2998 colon. The compound further yielded a TGI in the assay on 786-0 renal of more than 100 µM.

As for `CC(C)(C)c1cc(C(O)(C(F)(F)F)C(F)(F)F)c2c(c1)C(C(F)(F)F)(C(F)(F)F)OC(C)(C(C)(C)C)N2` (configuration not stated), the TGI is 5.24 µM in the assay on NCI-H522 lung; 16.2 µM in the assay on RXF 393 renal; 9.18 µM in the assay with OVCAR-3 ovarian; 12.1 µM with ACHN renal; more than 100 µM in the assay on OVCAR-5 ovarian; 78.2 µM with MALME-3M melanoma. Also, the TGI with HCC-2998 colon was found to be 93.6 µM; in the assay with 786-0 renal, 11.6 µM.

For `COc1cc(C2SCCCCCCCCCCSC(c3ccc(O)c(OC)c3)SCCCCCCCCCCS2)ccc1O` (configuration not stated), the TGI in the assay on NCI-H522 lung, in the assay with RXF 393 renal, with ACHN renal, with OVCAR-5 ovarian, in the assay with MALME-3M melanoma and with SF-268 CNS was more than 100 µM in each case. In addition, the TGI in the assay with 786-0 renal was more than 100 µM.

Regarding `COC(=O)/C=C(C)/C=C/C1OC(C)OCC1O` (configuration not stated), the TGI with NCI-H522 lung, in the assay with OVCAR-3 ovarian, in the assay on ACHN renal, in the assay with OVCAR-5 ovarian, in the assay on MALME-3M melanoma and with CCRF-CEM leukemia was more than 100 µM throughout. For the same compound, the TGI in the assay on SF-268 CNS, in the assay on HCC-2998 colon and in the assay on 786-0 renal was more than 100 µM each time.

As for `Nc1ccccc1C#C/C=C\C#Cc1ccc(OCCCNC(=O)c2cc3ccccc3[nH]2)cc1`, the GI50 is more than 100 µM with NCI-H522 lung; 7.15 µM in the assay with RXF 393 renal; 11.7 µM in the assay on OVCAR-3 ovarian; 6.61 µM in the assay with ACHN renal; 32.3 µM with OVCAR-5 ovarian; 1.08 µM with MALME-3M melanoma. Further, the GI50 in the assay on SF-268 CNS was 2.37 µM; in the assay with HCC-2998 colon, 31.5 µM; in the assay with 786-0 renal it was 12.6 µM. The TGI in the assay on NCI-H522 lung was more than 100 µM; in the assay with RXF 393 renal, 22 µM; in the assay with OVCAR-3 ovarian, 95.6 µM; in the assay on ACHN renal it was 40.9 µM; in the assay on OVCAR-5 ovarian, more than 100 µM; in the assay on MALME-3M melanoma, 18.3 µM. Further, the figures for the TGI with SF-268 CNS, in the assay on HCC-2998 colon and in the assay with 786-0 renal were 37.4 µM, more than 100 µM and 25.7 µM, respectively.

On to `COc1ccc(OC)c(NC(=O)CCC/C(CC(=O)c2ccc(O)c(OC)c2)=N\Nc2nnc(C)n2N)c1`, for which the TGI in the assay with NCI-H522 lung, with OVCAR-3 ovarian, in the assay on ACHN renal, with OVCAR-5 ovarian, in the assay on MALME-3M melanoma and in the assay with CCRF-CEM leukemia was more than 100 µM each time. Moreover, the TGI in the assay on SF-268 CNS, in the assay with HCC-2998 colon and in the assay with 786-0 renal was more than 100 µM each time.

Consider `COC/C=C\COC`, for which the TGI in the assay with RXF 393 renal, in the assay on OVCAR-3 ovarian, in the assay with ACHN renal, with OVCAR-5 ovarian, in the assay on MALME-3M melanoma and with CCRF-CEM leukemia was more than 100 µM each time. The TGI in the assay on HCC-2998 colon and in the assay on 786-0 renal was more than 100 µM in each case.

Regarding `COc1ccc(-c2cs/c(=N\N=C\c3ccc(O)cc3O)n2/N=C/c2ccc(O)cc2O)cc1`, the GI50 was 1.88 µM in the assay on NCI-H522 lung; 1.75 µM in the assay with OVCAR-3 ovarian; 1.8 µM in the assay on ACHN renal; 2.37 µM with OVCAR-5 ovarian; 2.2 µM in the assay with MALME-3M melanoma; 2.36 µM in the assay on SF-268 CNS. Moreover, the GI50 is 2.07 µM in the assay with HCC-2998 colon and 2.16 µM with 786-0 renal. Moreover, the TGI in the assay with NCI-H522 lung was 4.68 µM; in the assay with OVCAR-3 ovarian it was 3.67 µM; with ACHN renal it was 3.84 µM; in the assay on OVCAR-5 ovarian, 5.18 µM; in the assay with MALME-3M melanoma, 4.79 µM; with SF-268 CNS it was 6.13 µM. Also, the values for the TGI in the assay on HCC-2998 colon and in the assay with 786-0 renal were 4.38 µM and 4.93 µM, respectively.

Turning to `CCC(O)c1ccc(Br)cc1NC(=O)c1cccc(Cl)c1` (configuration not stated), the GI50 in the assay on NCI-H522 lung was 19.8 µM; in the assay on OVCAR-3 ovarian, 20.3 µM; with ACHN renal, 23.1 µM; in the assay on OVCAR-5 ovarian, 32.3 µM; with MALME-3M melanoma, 36.6 µM; with CCRF-CEM leukemia, 20.5 µM. For the same compound, the GI50 in the assay on SF-268 CNS is 26.2 µM; with HCC-2998 colon it was 20.5 µM; in the assay with 786-0 renal, 33.1 µM. The TGI in the assay with NCI-H522 lung is 81 µM; in the assay with OVCAR-3 ovarian it was 71.1 µM; with ACHN renal, more than 100 µM; with OVCAR-5 ovarian, more than 100 µM; in the assay on MALME-3M melanoma, more than 100 µM; in the assay with CCRF-CEM leukemia, 58.9 µM. The results for the TGI in the assay with SF-268 CNS, in the assay with HCC-2998 colon and in the assay with 786-0 renal were 93.2 µM, 45.4 µM and more than 100 µM, respectively.

Take `COc1ccc(NC(=O)CC2SC(=Nc3ccccc3C)NC2=O)c([N+](=O)[O-])c1` (configuration not stated): the TGI is 80.5 µM in the assay on NCI-H522 lung; more than 100 µM in the assay on OVCAR-3 ovarian; more than 100 µM in the assay on ACHN renal; more than 100 µM with OVCAR-5 ovarian; more than 100 µM in the assay on MALME-3M melanoma; more than 100 µM with SF-268 CNS. Further, the TGI with HCC-2998 colon and in the assay with 786-0 renal was more than 100 µM each time.

As for `CCOC(=O)C1=C(Nc2ccc(Cl)cc2Cl)OCC1=O`, the TGI with NCI-H522 lung, with OVCAR-3 ovarian, in the assay with ACHN renal, in the assay with OVCAR-5 ovarian, in the assay on MALME-3M melanoma and in the assay with SF-268 CNS was more than 100 µM each time. In addition, the TGI in the assay on HCC-2998 colon and in the assay with 786-0 renal was more than 100 µM in each case.

Take `C=CCNc1nc2c(s1)C(=O)c1ccccc1C2=O`: the TGI in the assay with NCI-H522 lung was determined as 21.4 µM; in the assay with RXF 393 renal it was 35.4 µM; in the assay with OVCAR-3 ovarian, 37.6 µM; in the assay with ACHN renal, 20.2 µM; in the assay with OVCAR-5 ovarian it was 37.5 µM; in the assay on MALME-3M melanoma, 25.6 µM. In addition, the TGI in the assay with SF-268 CNS was found to be 26 µM; with HCC-2998 colon, 35.3 µM; in the assay on 786-0 renal, 28.5 µM.

In the case of `COc1ccc(S(=O)(=O)N2CCN(C(=O)c3ccc(-c4ccccc4)cc3)CC2C(=O)NO)cc1` (configuration not stated), the GI50 with OVCAR-3 ovarian was 3.88 µM and 11.2 µM; in the assay on ACHN renal, 3.28 µM and 20.6 µM; with MALME-3M melanoma, 2.25 µM and 17.3 µM; in the assay with CCRF-CEM leukemia it was more than 100 µM. For the same compound, the TGI was 11.2 µM and 47.6 µM with OVCAR-3 ovarian; 12.5 µM and 99.5 µM in the assay with ACHN renal; 12.5 µM and > 100 µM with OVCAR-5 ovarian; more than 100 µM in the assay with CCRF-CEM leukemia; 12.4 µM and > 100 µM with 786-0 renal.

Consider `COc1ccc(NC(=O)/C(=C/c2ccccc2)C(C)=O)cc1`, for which the TGI was 4.6 µM in the assay on NCI-H522 lung; 29.9 µM in the assay with OVCAR-3 ovarian; 42.2 µM in the assay on ACHN renal; 34.1 µM in the assay on OVCAR-5 ovarian; 32.3 µM with MALME-3M melanoma; 27.9 µM in the assay with CCRF-CEM leukemia. Moreover, the TGI in the assay with SF-268 CNS is 34.3 µM; with HCC-2998 colon, 33.5 µM; with 786-0 renal it was 28.6 µM.

(Values after PubChem BioAssay (NCI).)
